Results published in US20260069584A1, “METHODS OF TREATING CHRONIC MYELOID LEUKEMIA USING THE TYROSINE KINASE INHIBITOR VODOBATINIB” (Sun Pharma Advanced Research Company Ltd., priority 2022, published 2026).

Test: Part B: safety, treatment-emergent adverse events, DLT and MTD
Format: in vivo
Excerpt: For the purpose of the present invention, the adverse events were graded as per the National Cancer Institute's, Common Terminology Criteria for Adverse Events (NCI-CTCAE) Version 4.03 and Version 5.0 (https://evs.nci.nih.gov/ftp1/CTCAE/About.html). It is a descriptive terminology which can be utilized for Adverse Event (AE) reporting.
AEs were graded as per NCI-CTCAE Version 5.0. In the present study, along with others most common AEs for which patients were monitored were thrombocytopenia, neutropenia and anemia, any AE reported by the patient after the completion of AE collection period and considered related to the study drug was reported.
Dose Limiting Toxicity (DLT) is defined as the occurrence of any of the following unless clearly and incontrovertibly related to the underlying disease. The hematological DLTs were defined as per the Phase of CML: • a) Grade 3 or higher, or other non-hematological toxicity, including nausea, vomiting and diarrhea, and refractory to standard antiemetic therapy except alopecia and nail disorders; • b) Missed ≥25% of doses over 28 days due to toxicity in Cycle 1; and • c) Any grade of toxicity requiring dose reduction or discontinuation of IMP within the 28-days DLT assessment period (Cycle 1).
Safety Parameters: Parts B and C: Descriptive summaries were provided for the safety variables collected. Continuous variables were summarized using mean, standard deviation, minimum, median, and maximum. Categorical variables were summarized using frequency counts and percentages. For time-to-event variables, other percentiles were presented. In addition, summaries of AEs by intensity, seriousness, frequency, and relationship to IMP are presented. Adverse events (AE) s were coded using the Medical Dictionary for Regulatory Activities (MedDRA) and summarized by System Organ Class (SOC) and Preferred Term (PT).
In this study, the dose-escalation cohort started with an accelerated titration study design (ATD) and shifted to a 3±3 design when subjects in the preceding ATD cohort experienced either grade 2 or higher adverse events (AEs) or dose-limiting toxicity (DLT) during Cycle 1 that was not clearly and incontrovertibly related to the underlying disease or concomitant medications. The DLT period consisted of 28 days (Cycle 1). Subjects experiencing DLTs were managed with dose delays and/or discontinuation and continued in the study until disease progression. Decisions to advance to a succeeding dose level occurred after the evaluation of safety and tolerability data for a given dose level.
For the cohorts, where the 3±3 design applies, 3 subjects were enrolled initially. If 2 of these subjects experienced a Grade 2 or more toxicity (that was not clearly and incontrovertibly related to the underlying disease or concomitant medications), subsequent cohorts were escalated according to smaller increments. Further, if there were no DLTs in the first 3 subjects, dose escalation to the next higher dose level was allowed to proceed. If 1 of the 3 subjects experienced a DLT, that dose level was expanded to 6 subjects (3 additional subjects were enrolled). If 2 subjects at a given dose level experienced a DLT, the MTD was considered to have been exceeded. The next lower dose level was expanded to 6 subjects, or if 6 subjects had already been enrolled and no more than 1 of the 6 subjects experienced a DLT, then this lower dose level was considered the MTD. Additional subjects were enrolled in dose escalation cohorts for further assessment of safety and efficacy of the compound of Formula 1 at doses that were tolerated (i.e., doses that have <2 DLTs in 6 enrolled subjects or <1 DLT in 3 enrolled subjects). Thus 204 mg was arrived at as MTD. A subject experiencing a DLT was allowed to continue therapy with a reduced dose. Subjects who experienced a DLT and recovered were treated at the next lower dose level until disease progression or other events requiring further dose reduction existed. […]

Cc1ccc(C(=O)NNC(=O)c2c(C)cccc2Cl)cc1C#Cc1cnc2ccccc2c1 [compound of Formula I, N′-(2-chloro-6-methylbenzoyl)-4-methyl-3-[2-(3-quinolyl)ethynyl]-benzohydrazide]
15 No of pts: TEAEs Related to comp of Formula I, Any grade (Prior Ponatinib (N = 22))
10 No of pts: Thrombocytopenia, Grade 3/4 (Overall (N = 53)) | SAEs, Any grade (Prior Ponatinib (N = 22))
41.5%: thrombocytopenia (any grade)
3 No of pts: Amylase increased, Any grade (Prior Ponatinib (N = 22)) | Back pain, Any grade (Prior Ponatinib (N = 22)) | Constipation, Any grade (Prior Ponatinib (N = 22)) | Decreased appetite, Any grade (Prior Ponatinib (N = 22)) | Neutropenia, Any grade (Prior Ponatinib (N = 22)) | Thrombocytopenia, Grade 3/4 (Prior Ponatinib (N = 22))
1 No of pts: Diarrhoea, Grade 3/4 (Overall (N = 53)) | Pyrexia, Grade 3/4 (Overall (N = 53)) | Diarrhoea, Grade 3/4 (Prior Ponatinib (N = 22)) | Pyrexia, Grade 3/4 (Prior Ponatinib (N = 22))
19 No of pts: All TEAEs, Grade 3/4 (Prior Ponatinib (N = 22))
2 No of pts: TEAEs Leading to drug withdrawal, Grade 3/4 (Overall (N = 53)) | Amylase increased, Grade 3/4 (Prior Ponatinib (N = 22)) | Death, Any grade (Prior Ponatinib (N = 22)) | Lipase increased, Any grade (Prior Ponatinib (N = 22)) | Lipase increased, Grade 3/4 (Prior Ponatinib (N = 22)) | Myalgia, Any grade (Prior Ponatinib (N = 22)) | Nasopharyngitis, Any grade (Prior Ponatinib (N = 22)) | Neutropenia, Grade 3/4 (Prior Ponatinib (N = 22)) | TEAEs Leading to drug withdrawal, Any grade (Prior Ponatinib (N = 22)) | TEAEs Leading to drug withdrawal, Grade 3/4 (Prior Ponatinib (N = 22))
7 No of pts: Anemia, Grade 3/4 (Overall (N = 53)) | Back pain, Any grade (Overall (N = 53)) | Fatigue, Any grade (Overall (N = 53)) | Myalgia, Any grade (Overall (N = 53)) | Neutropenia, Grade 3/4 (Overall (N = 53)) | Vomiting, Any grade (Overall (N = 53)) | Diarrhoea, Any grade (Prior Ponatinib (N = 22)) | Nausea, Any grade (Prior Ponatinib (N = 22)) | SAEs, Grade 3/4 (Prior Ponatinib (N = 22)) | TEAEs Related to comp of Formula I, Grade 3/4 (Prior Ponatinib (N = 22)) | TEAEs: Dose discontinued and restarted, Grade 3/4 (Prior Ponatinib (N = 22)) | Thrombocytopenia, Any grade (Prior Ponatinib (N = 22))
11 No of pts: Anemia, Any grade (Overall (N = 53)) | Cough, Any grade (Overall (N = 53)) | TEAEs: Dose modifications, Any grade (Overall (N = 53))
12 No of pts: Diarrhoea, Any grade (Overall (N = 53)) | SAEs, Grade 3/4 (Overall (N = 53)) | TEAEs: Dose discontinued and restarted, Grade 3/4 (Overall (N = 53)) | TEAEs: Dose discontinued and restarted, Any grade (Prior Ponatinib (N = 22))
5 No of pts: Amylase increased, Any grade (Overall (N = 53)) | Lipase increased, Any grade (Overall (N = 53)) | Cough, Any grade (Prior Ponatinib (N = 22))
1 subject: discontinued from the study due to AE (10 subjects, dose expansion at 174 mg)
35 No of pts: TEAEs Related to comp of Formula I, Any grade (Overall (N = 53))
34 No of pts: All TEAEs, Grade 3/4 (Overall (N = 53))
4 subjects: discontinued due to disease progression (41 subjects, dose escalation) | discontinued due to AEs (41 subjects, dose escalation (1 each at 48, 126, 174 and 204 mg))
0 No of pts: Back pain, Grade 3/4 (Overall (N = 53)) | Constipation, Grade 3/4 (Overall (N = 53)) | Cough, Grade 3/4 (Overall (N = 53)) | Death, Grade 3/4 (Overall (N = 53)) | Decreased appetite, Grade 3/4 (Overall (N = 53)) | Fatigue, Grade 3/4 (Overall (N = 53)) | Headache, Grade 3/4 (Overall (N = 53)) | Myalgia, Grade 3/4 (Overall (N = 53)) | Nasopharyngitis, Grade 3/4 (Overall (N = 53)) | Nausea, Grade 3/4 (Overall (N = 53)) | Pruritis, Grade 3/4 (Overall (N = 53)) | Rhinitis, Grade 3/4 (Overall (N = 53)) | Vomiting, Grade 3/4 (Overall (N = 53)) | Back pain, Grade 3/4 (Prior Ponatinib (N = 22)) | Constipation, Grade 3/4 (Prior Ponatinib (N = 22)) | Cough, Grade 3/4 (Prior Ponatinib (N = 22)) | Death, Grade 3/4 (Prior Ponatinib (N = 22)) | Decreased appetite, Grade 3/4 (Prior Ponatinib (N = 22)) | Fatigue, Grade 3/4 (Prior Ponatinib (N = 22)) | Headache, Grade 3/4 (Prior Ponatinib (N = 22)) | Myalgia, Grade 3/4 (Prior Ponatinib (N = 22)) | Nasopharyngitis, Grade 3/4 (Prior Ponatinib (N = 22)) | Nausea, Grade 3/4 (Prior Ponatinib (N = 22)) | Pruritis, Grade 3/4 (Prior Ponatinib (N = 22)) | Rhinitis, Grade 3/4 (Prior Ponatinib (N = 22)) | Vomiting, Grade 3/4 (Prior Ponatinib (N = 22))
20.8%: Cough (any grade) | anemia (any grade)
14 No of pts: TEAEs Related to comp of Formula I, Grade 3/4 (Overall (N = 53))
22%: diarrhea (any grade)
80%: grade 3 or 4 AEs (28 patients, 3 or more TKI treatments)
33.4%: grade 3 or 4 AEs (6 patients, prior 2 TKI treatments)
6 No of pts: Decreased appetite, Any grade (Overall (N = 53)) | Nasopharyngitis, Any grade (Overall (N = 53)) | Pruritis, Any grade (Overall (N = 53)) | Rhinitis, Any grade (Overall (N = 53)) | TEAEs Leading to drug withdrawal, Any grade (Overall (N = 53)) | TEAEs: Dose modifications, Grade 3/4 (Overall (N = 53)) | Anemia, Any grade (Prior Ponatinib (N = 22))
8 No of pts: Constipation, Any grade (Overall (N = 53)) | Headache, Any grade (Overall (N = 53)) | Nausea, Any grade (Overall (N = 53)) | Neutropenia, Any grade (Overall (N = 53)) | Pyrexia, Any grade (Overall (N = 53)) | TEAEs: Dose modifications, Any grade (Prior Ponatinib (N = 22))
11 subjects: discontinued from the study (41 subjects, dose escalation cohorts)
51 No of pts: All TEAEs, Any grade (Overall (N = 53))
86.3%: grade 3 or 4 AEs (19 patients treated with ponatinib)
4 No of pts: Amylase increased, Grade 3/4 (Overall (N = 53)) | Lipase increased, Grade 3/4 (Overall (N = 53)) | Anemia, Grade 3/4 (Prior Ponatinib (N = 22)) | Fatigue, Any grade (Prior Ponatinib (N = 22)) | Headache, Any grade (Prior Ponatinib (N = 22)) | Pruritis, Any grade (Prior Ponatinib (N = 22)) | Pyrexia, Any grade (Prior Ponatinib (N = 22)) | Rhinitis, Any grade (Prior Ponatinib (N = 22)) | TEAEs: Dose modifications, Grade 3/4 (Prior Ponatinib (N = 22)) | Vomiting, Any grade (Prior Ponatinib (N = 22))
20 No of pts: SAEs, Any grade (Overall (N = 53)) | TEAEs: Dose discontinued and restarted, Any grade (Overall (N = 53))
11.3%: AEs leading to permanent discontinuation (6 pts)
22 No of pts: Thrombocytopenia, Any grade (Overall (N = 53)) | All TEAEs, Any grade (Prior Ponatinib (N = 22))
